# Experimental data: US20190290726A1, “PROTEIN POLYMER FUSIONS FOR SUBCUTANEOUS DELIVERY OF SMALL MOLECULES” (University of Southern California, priority 2016, published 2019)
# Entries after “also recorded” stand apart in the source; their conditions may differ.
# Key:
# [1] = cited from earlier work
# [2] = system: MDA-MB-468 breast cancer xenograft; experiment: In vivo tumor regression study, subcutaneous administration; details: 0.75 mg/kg
# From the text: Since there was no statistical difference in efficacy observed between FSI-Rapa and FAF-Rapa intravenously, Applicants next employed SC route of administration in the same MDA-MB-468 xenograft mouse model (FIGS. 5A-5H). The rationale behind exploring SC route was to distinguish the uptake and bio distribution of different FKBP-ELPs from the site of injection into the systemic circulation. […] SC route further presents a convenient administration method compared to IV route with more clinical relevance and has been FDA approved for monoclonal antibodies and biotherapeutics.
# The comparative tumor regression study consisted of 5 groups: PBS, Free Rapa, FAF-Rapa, FA-Rapa, and FSI-Rapa at the same maximum tolerated dose of 0.75 mg/kg (n=6-8/group). All treatments were done subcutaneously in the right flank above the hind leg. […] Because of the toxic side effects, mice were thereafter treated with free Rapa in DMSO:EtOH:Cremophore-EL:PBS formulation in 1:1:2:6% v/v ratio. […] However, the mice gradually gained back the lost BW which enabled us to continue the treatment with the Cremophore formulation. To prevent further local discomfort to mice, a different site of injection was chosen each time spanning the entire flank region for free Rapa injections. […] There was no local bruising or scabs observed with any of the FKBP-ELP-Rapa formulations which made the treatment easier and at the same site of injection throughout the study.
# All animal experiments were conducted as per the guidelines of the American Association of Laboratory Animal Care under an USC approved protocol. MDA-MB-468 cells (American Type Tissue Culture Collection) were cultured at 37° C. with 5% CO2 in Dulbecco's modified Eagle's medium (DMEM)/Ham's F-12 media (Caisson) supplemented with 10% fetal bovine serum. The cells were sent for screening against all major mouse pathogens and human blood borne pathogens (Charles River) prior to implantation. A single injection of MDA-MB-468 cells (1-2×10^6 cells in 100 μL fetal bovine serum free DMEM media) was implanted into the left mammary fat pad of 7-8 weeks old female nude (nu/nu) athymic mice (Harlan, Inc.) Tumors were allowed to grow to a size of ˜50-100 mm^3 and mice were randomized blindly into respective groups before start of treatment. […] BW and tumor size were measured thrice a week on the same day of injections. Tumor size was measured using Vernier calipers and tumor volume was calculated using the following equation:
# where a and b represents smaller and bigger length respectively. […] Tumor burden was calculated by determining the trapezoidal area under the growth curve for each mouse by using the following equation: […]
compound,measurement,setting,value
"CO[C@H]1C[C@@H]2CC[C@@H](C)[C@@](O)(O2)C(=O)C(=O)N2CCCC[C@H]2C(=O)O[C@H]([C@H](C)C[C@@H]2CC[C@@H](O)[C@H](OC)C2)CC(=O)[C@H](C)/C=C(\C)[C@@H](O)[C@@H](OC)C(=O)[C@H](C)C[C@H](C)/C=C/C=C/C=C/1C [Free Rapa, (3S,6R,7E,9R,10R,12R,14S,15E,17E,19E,21S,23S,26R,27R,34aS)-9,10,12,13,14,21,22,23,24,25,26,27,32,33,34,34a-hexadecahydro-9,27-dihydroxy-3-[(1R)-2-[(1S,3R,4R)-4-hydroxy-3-methoxycyclohexyl]-1-methylethyl]-10,21-dimethoxy-6,8,12,14,20,26-hexamethyl-23,27-epoxy-3H-pyrido[2,1-c][1,4]-oxaazacyclohentriacontine-1,5,11,28,29(4H,6H,31H)-pentone]",aqueous solubility,[1],~10 µM
same,tumor burden compared to PBS group,"[2]; SC, Tukey post hoc, last day of treatment (day 50)",statistically significance compared to PBS group; also recorded: significantly lower compared to PBS
same,Kaplan-Meier survival analysis,"[2]; SC, endpoint 4 times increase in tumor volume",better anti-tumor efficacy than other groups
same,drop in BW,"[2]; mouse, in vivo, sc",10%
same,"toxicity, local toxicity at the site of injection","[2]; mouse, in vivo, sc",considerable local toxicity at site of subcutaneous injection
